Assay results published in article PMC6080863 (ACS Catalysis, 2018).
Numbering of substitutions follows the chain as printed.

What was measured:
[1] = target: T1, DERAm (monomeric variant of ecDERA) (Escherichia coli, UniProt P0A6L0, K58E/Y96W); test: 1H-15N HSQC NMR titration, chemical shift perturbation; type: binding
T1 sequence (P0A6L0 1-259 K58E/Y96W): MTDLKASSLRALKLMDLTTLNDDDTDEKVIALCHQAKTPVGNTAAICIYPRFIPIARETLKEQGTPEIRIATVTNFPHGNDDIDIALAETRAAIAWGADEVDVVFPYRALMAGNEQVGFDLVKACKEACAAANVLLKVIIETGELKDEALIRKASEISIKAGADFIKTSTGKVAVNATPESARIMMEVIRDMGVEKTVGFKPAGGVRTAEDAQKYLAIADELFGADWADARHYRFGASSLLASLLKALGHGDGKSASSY

[2] = target: T2, DERAm (monomeric variant of ecDERA) (Escherichia coli, UniProt P0A6L0, K58E/Y259F/Y96W); test: as above; type: binding
T2 sequence (P0A6L0 1-259 K58E/Y96W/Y259F): T1 sequence (P0A6L0 1-259 K58E/Y96W) with Y259F

SMILES: O=P(O)(O)O [potassium phosphate]
- Kd [1]: 18.8 ± 3.6 mM
- Kd [2]: 17.9 ± 2.4 mM
